Experimental data published in patent US9540343B2 (Gilead Sciences, Inc., priority 2011, dated 2017).

Key:
[1] = tested on: HIV-IIIb; assay: Test A: Antiviral assay in MT4 cells; assay type: cell-based, HIV-1; settings: Human immunodeficiency virus 1, IIIB, MT4, 120 h, read-out: % inhibition at 2 μM, percent inhibition of virus-induced cell killing, from dose response curve at 2 uM drug; MT-4 cells infected with HIV-IIIb, 5 days, CellTiter-Glo
[2] = in vitro
In short: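 Cytoprotection read-out: CellTiter-Glo chemiluminescence after 5 days at 37 °C of HIV-IIIb-infected MT-4 cells (m.o.i. 0.003) with compound in 10-point 3-fold dilutions, quadruplicate, 10% FBS. Cytotoxicity (CC50) measured identically without virus.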

[3] = human, uninfected MT-4 cells, CC50 (nM), same protocol as Test A, CellTiter-Glo

Compound | inhibition at 2 µM [1] | CC50 at 5 days [2, 3] | CC50 at 5 days ([2]; human, CC50 (nM), uninfected MT-4 cells, same protocol as Test A, CellTiter-Glo)
CCN(CC)S(=O)(=O)c1ccc(-c2cccnc2[C@H](Cc2cc(F)cc(F)c2)NC(=O)Cn2nc(C(F)F)c3c2C(F)(F)C2CC32)cc1 (stereo partly drawn) [Example 116, (S)—N-(1-(3-(4-(N,N-diethylsulfamoyl)phenyl)-pyridin-2-yl)-2-(3,5-difluorophenyl)ethyl)-2-(3-(difluoromethyl)-5,6-dihydro-4,5-(methano)-6,6-difluoro-cyclopenta[c]pyrazol-1(4H)-yl)acetamide] | 72% | > 53200 nM | –
O=C(Cc1c[nH]c2ccc(F)cc12)N[C@@H](Cc1cc(F)cc(F)c1)c1ncccc1-c1ccc(Cl)cc1Cl [Example 78, (S)—N-(1-(3-(2,4-dichlorophenyl)pyridin-2-yl)-2-(3,5-difluorophenyl)ethyl)-2-(5-fluoro-1H-indol-3-yl)acetamide] | 11% | 7890 nM | –
CC(C)(C)OC(=O)N1[C@@H](C(=O)N[C@@H](Cc2cc(F)cc(F)c2)c2ncccc2-c2ccc(F)c(C(N)=O)c2)CC[C@H]1c1ccccc1 [Example 158, (2R,5S)-tert-butyl 2-((S)-1-(3-(3-carbamoyl-4-fluorophenyl)pyridin-2-yl)-2-(3,5-difluorophenyl)ethylcarbamoyl)-5-phenylpyrrolidine-1-carboxylate] | 0% | 8500 nM | –
NC(=O)c1cc(-c2cccnc2[C@H](Cc2cc(F)cc(F)c2)NC(=O)Cn2nc(C(F)F)c3c2C(=O)CCC3)ccc1F [Example 370, (S)-5-(2-(1-(2-(3-(difluoromethyl)-7-oxo-4,5,6,7-tetrahydro-1H-indazol-1-yl)acetamido)-2-(3,5-difluorophenyl)ethyl)pyridin-3-yl)-2-fluorobenzamide] | 33% | 22700 nM | –
O=C(Cn1nc(C(F)F)c2c1C(F)(F)C1CC21)N[C@@H](Cc1cc(F)cc(F)c1)c1ncccc1-c1ccc2cccnc2c1 (stereo partly drawn) [Example 97, (S)—N-(1-(3-(quinoline-7-yl)-pyridin-2-yl)-2-(3,5-difluorophenyl)ethyl)-2-(3-(difluoromethyl)-5,6-dihydro-4,5-(methano)-6,6-difluoro-cyclopenta[c]pyrazol-1(4H)-yl)acetamide] | 27% | 33900 nM | –
Cc1ccccc1-c1ccnc(C(Cc2ccccc2)NC(=O)Cn2nc(C(F)(F)F)c3c2CCCC3)n1 (stereo not drawn) [Example 10, N-(2-phenyl-1-(4-o-tolylpyrimidin-2-yl)ethyl)-2-(3-(trifluoromethyl)-4,5,6,7-tetrahydro-1H-indazol-1-yl)acetamide] | 0% | 13000 nM | –
NC(=O)c1cc(-c2cccnc2[C@H](Cc2cc(F)cc(F)c2)NC(=O)Cn2nc3c(c2C(F)(F)F)C(F)(F)C2CC32)ccc1F (stereo partly drawn) [Example 381, 5-(2-((1S)-1-(2-(4,4-difluoro-3-(trifluoromethyl)-4,4-a,5,5a-tetrahydro-2H-cyclopropa[4,5]cyclopenta[1,2-c]pyrazol-2-yl)acetamido)-2-(3,5-difluorophenyl)ethyl)pyridin-3-yl)-2-fluorobenzamide] | 1% | 24900 nM | –
NC(=O)c1cc(-c2cccnc2[C@H](Cc2cc(F)cc(F)c2)NC(=O)Cn2nc(C(F)(F)F)c3c2CC(=O)CC3)ccc1F [Example 322, (S)-5-(2-(2-(3,5-difluorophenyl)-1-(2-(6-oxo-3-(trifluoromethyl)-4,5,6,7-tetrahydro-1H-indazol-1-yl)acetamido)ethyl)pyridin-3-yl)-2-fluorobenzamide] | 10% | 37100 nM | –
C#Cc1cn(CC(=O)N[C@@H](Cc2cc(F)cc(F)c2)c2ncccc2-c2ccc(F)c(C(N)=O)c2)nc1C(F)(F)F [Example 341, (S)-5-(2-(2-(3,5-difluorophenyl)-1-(2-(4-ethynyl-3-(trifluoromethyl)-1H-pyrazol-1-yl)acetamido)ethyl)pyridin-3-yl)-2-fluorobenzamide] | 13% | 26600 nM | –
NC(=O)c1cccc(-c2cccnc2[C@H](Cc2cc(F)cc(Cl)c2)NC(=O)Cc2c[nH]c3ccc(O)cc23)c1 [Example 245F, (S)-3-(2-(2-(3-chloro-5-fluorophenyl)-1-(2-(5-hydroxy-1H-indol-3-yl)acetamido)ethyl)pyridin-3-yl)benzamide] | 71% | 30300 nM | –
NC(=O)c1cc(-c2cccnc2[C@H](Cc2cc(F)cc(F)c2)NC(=O)[C@@H]2C[C@@H](OCc3ccccc3)CN2)ccc1F [Example 157, (2S,4R)-4-(benzyloxy)-N—((S)-1-(3-(3-carbamoyl-4-fluorophenyl)pyridin-2-yl)-2-(3,5-difluorophenyl)ethyl)pyrrolidine-2-carboxamide] | 10% | 38300 nM | –
NC(=O)c1cc(-c2cccnc2[C@H](Cc2cc(F)cc(F)c2)NC(=O)C2CCCN2C(=O)C2CCCC2)ccc1F (stereo partly drawn) [Example 153, N—((S)-1-(3-(3-carbamoyl-4-fluorophenyl)pyridin-2-yl)-2-(3,5-difluorophenyl)ethyl)-1-(cyclopentanecarbonyl)pyrrolidine-2-carboxamide] | 10% | 17300 nM | –
CC(=O)c1c(C)n(CC(=O)N[C@@H](Cc2cc(F)cc(F)c2)c2ncccc2-c2ccc(Cl)cc2)c2ccccc12 [Example 486, (S)-2-(3-acetyl-2-methyl-1H-indol-1-yl)-N-(1-(3-(4-chlorophenyl)pyridin-2-yl)-2-(3,5-difluorophenyl)ethyl)acetamide] | 76% | – | 7080 nM
CC(=O)Nc1ccc(-c2cccnc2[C@H](Cc2cc(F)cc(F)c2)NC(=O)Cc2c[nH]c3ccc(F)cc23)cc1 [Example 394] | 14% | 30800 nM | –
O=C(Cn1nc(C(F)F)c2c1C(F)(F)CCC2(F)F)N[C@@H](Cc1cc(F)cc(F)c1)c1ncccc1-c1ccc2ccc(=O)[nH]c2c1 [Example 490D, (S)-2-(3-(difluoromethyl)-4,4,7,7-tetrafluoro-4,5,6,7-tetrahydro-1H-indazol-1-yl)-N-(2-(3,5-difluorophenyl)-1-(3-(2-oxo-1,2-dihydroquinolin-7-yl)pyridin-2-yl)ethyl)acetamide] | 87% | 38000 nM | –
NC(=O)c1cc(-c2cccnc2[C@H](Cc2cc(F)cc(F)c2)NC(=O)Cn2nc(C(F)(F)F)c3c2CCS(=O)(=O)C3)ccc1F [Example 263, (S)-5-(2-(2-(3,5-difluorophenyl)-1-(2-(5,5-dioxido-3-(trifluoromethyl)-6,7-dihydrothiopyrano[4,3-c]pyrazol-1(4H)-yl)acetamido)ethyl)pyridin-3-yl)-2-fluorobenzamide] | 17% | > 53200 nM | –
COc1ccc(CC(=O)N[C@@H](Cc2cc(F)cc(F)c2)c2ncccc2-c2cccc(C(N)=O)c2)c(OC)c1 [Example 499, (S)-3-(2-(2-(3,5-difluorophenyl)-1-(2-(2,4-dimethoxyphenyl)acetamido)ethyl)pyridin-3-yl)benzamide] | 22% | > 53000 nM | –
O=C(Cn1nc(C(F)F)c2c1C(F)(F)CCC2(F)F)N[C@@H](Cc1cc(F)cc(F)c1)c1ncncc1-c1ccc(Cl)cc1 [Example 524D, (S)—N-(1-(5-(4-chlorophenyl)pyrimidin-4-yl)-2-(3,5-difluorophenyl)ethyl)-2-(3-(difluoromethyl)-4,4,7,7-tetrafluoro-4,5,6,7-tetrahydro-1H-indazol-1-yl)acetamide] | 78% | 8530 nM | –
